Assay results reported in US12590100B2, “Tetrahydro-spiroindoline-pyrrolopyrrole-triones inhibitors of the NRF2-β-TrCP interaction for use in the treatment of fatty liver disease” (Universidad Autonoma De Madrid, priority 2021, dated 2026).
Entries after “also recorded” stand apart in the source; their conditions may differ.

What was measured:
[1] = test system: C57BL/6 mice treated with LPS; assay: Inflammatory response in LPS-treated mice; assay type: in vivo, mouse
Description: FIG. 11. PHAR reduces the inflammatory response in LPS-treated mice. The mice were divided into 4 experimental groups (n=4). Experimental groups 1 and 3 were treated by IP route with vehicle (Tween-80+PBS, 1:13) and experimental groups 2 and 4 with 50 mg/kg of PHAR for 5 days. After the second-to-last administration of the compound, groups 3 and 4 were treated by IP route with 1 mg/kg of LPS for 24 h. Two hours after the last dose of PHAR and twenty-four hours after the administration of LPS, all the mice were sacrificed by extracting the liver protein and total RNA, A), representative immunoblots showing NRF2, HO1, and GAPDH protein levels as the liver extract loading control. B), densitometric analysis of NRF2 and HO1 protein levels of the representative immunoblots shown in (A), expressed as a ratio of NRF2/GAPDH or HO1/GAPDH. The data is depicted as means±SEM (n=4). Statistical analysis was performed with one-way ANOVA followed by the Bonferroni test to compare inter-group differences. **p<0.01; ***p<0.001 vs. vehicle. C), the mRNA levels of Il1β, Il6, and Tnfα were determined by means of qRT-PCR and normalized by means of average Gapdh, Tbp, and β-actin. The data is depicted as mean±SEM (n=4). Statistical analysis was performed with one-way ANOVA followed by the Bonferroni test to check inter-group differences. ***p<0.001 vs. LPS. D) Representative images of hematoxylin and eosin (H&E) staining of mouse liver and immunohistochemical F4/80 staining of inflammatory liver macrophages (Kupffer cells).
To that end, 16 wild-type C57BL/6 mice were divided into 4 experimental groups: vehicle (experimental group 1), PHAR (experimental group 2), LPS (3), and LPS+PHAR (4). After obtaining results as promising as those described in detail in Example 1.6, the inventors decided to carry out the same experimental protocol. Briefly, the mice were treated daily by IP route with 50 mg/kg of PHAR (experimental groups 2 and 4) or vehicle (groups 1 and 3). Two hours after the second-to-last administration, experimental groups 3 and 4 were treated by IP route with […] of LPS. Lastly, the last dose of PHAR was administered on the last day and 24 h after the administration of LPS, all the mice were sacrificed by extracting the liver protein and total RNA.

[2] = test system: peritoneal macrophages (Nrf2+/+); assay: Inflammatory response in LPS-stimulated peritoneal macrophages from Nrf2+/+ mice; assay type: cell-based, mouse; details: PHAR 10 μM 8 h, LPS 100 ng/ml 4 h
Description: FIG. 8. PHAR reduces inflammatory response in peritoneal macrophages originating from Nrf2^+/+ mice but not in peritoneal macrophages originating from LPS-stimulated Nrf2-4KI mice. Peritoneal macrophages originating from wild-type (WT) and serum-deprived NRF2 knock-in (Nrf2-4Ki) mice were pretreated with 10 μM of PHAR for 8 h. 0.1% DMSO was used as a vehicle. After that period of time, the cells were treated with 100 ng/ml of LPS for 4 h. A), representative immunoblots originating from both cell types of NRF2, HO1, pre-IL1β, COX2, NOS2, and GAPDH as a loading control. B), densitometric analysis of NRF2 and HO1 protein levels of the representative immunoblots of (A), expressed as a ratio of protein/GAPDH levels. The data is depicted as means±SEM (n=3). Statistical analysis was performed with two-way ANOVA followed by the Bonferroni test to compare inter-group differences. *p<0.05; **p<0.01; ***p<0.001 vs. LPS. C), Densitometric analysis of pre-IL1b, COX2, and NOS2 protein levels of the representative immunoblots of (A), expressed as a ratio of protein/GAPDH levels. The data is depicted as means±SEM (n=3). […] D), the mRNA levels of Hmox1, Il1 β, Cox2, Nos2, Il6, and Tnfα were determined by means of qRT-PCR and normalized by means of average Gapdh, Thp, and β-actin. […]

[3] = mice, IP 50 mg/kg PHAR daily for 5 days

## O=C1[C@@H]2[C@H](Cc3c[nH]c4ccccc34)N[C@]3(C(=O)Nc4ccc(Cl)cc43)[C@@H]2C(=O)N1c1ccc2c(c1)OCCO2 [PHAR]
[1]; LPS+PHAR-treated versus LPS-treated mice
  inflammatory activation of hepatic macrophages (Kupffer cells), F4/80 immunostaining: reduction in F4/80 staining; also recorded: greatly attenuated
[1]; LPS-treated mice, prior IP 50 mg/kg PHAR
  liver mRNA of pro-inflammatory cytokines (Il1β, Il6, Tnfα): significant reduction in the production of said cytokines
[1]; [3]
  liver HO-1 levels: induction mediated by the compound could be clearly seen
  liver NRF2 levels: increase in NRF2 levels
[1]; mice, IP 50 mg/kg PHAR for 5 days
  liver structure (H&E): remains unaltered
[1]; mice, IP 50 mg/kg PHAR for 5 days plus LPS 24 h
  liver NRF2 and HO-1 levels with combined treatment PHAR+LPS: synergistic effect
[2]
  NRF2 and HO-1 protein levels: significant increase in NRF2 and HO-1 protein levels
  production of inflammatory markers, protein (pre-IL1β, COX2, NOS2) and mRNA (Il1β, Cox2, Nos2, Il6, Tnfα): significantly lower
